Measurements as given in patent US4923882A, “Novel amine derivatives, salts thereof and an anti-ulcer agent containing the same” (Toyama Chemical Co., Ltd., priority 1982, dated 1990).

Key:
[1] = system: gastric acid secretion; test: Inhibitory effect on gastric acid secretion, perfused stomach preparation of anesthetized rat (histamine stimulated); assay type: in vivo, Wistar strain rats; details: intravenous
Outline: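 Urethane-anesthetized, 18 h-fasted male Wistar rats (200 to 250 g); stomach perfused at 1 ml/min with saline at pH about 10, with perfusate pH recorded continuously under iv histamine 30 μg/kg/min. Drug given iv cumulatively once secretion steady (pH 3.3±0.2), each dose after a plateau; n=3 per dose.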

[2] = system: isolated guinea pig atrium; test: Effect on isolated guinea pig atrium (histamine-induced heart rate); parameters: species or system Hartley guinea pig
Experimental: Hartley guinea pig (male, 300 to 400 g) was killed by blood-letting, immediately after which the heart was isolated, and the right atrium was separated in a Krebs-Henseleit solution and used as a preparation. […] The preparation was trained in a bath fluid, and after the heart rate became constant, 5×10^-6 M of histamine was administered. After the heart rate became constant, each drug was administered cumulatively.
The inhibition percentage was determined from the following equation: [formula] HRmin : heart rate before the administration of histamine HRmax : heart rate after the administration of histamine
HRx : heart rate at the time of the administration of each drug.
The number of experiments were five for each dose.

[3] = system: gastric acid secretion; test: Inhibitory effect on gastric acid secretion, pylorus ligation method (histamine); assay type: in vivo, Wistar strain rats; details: Rattus norvegicus; 1 mg/kg, oral; histamine 25 mg/kg s.c.; read-out: Inhibition percentage (gastric acid secretion)
Outline: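 Male Wistar rats (190–230 g, 5–6/group) fasted 35 h, dosed orally; pylorus ligated under ether 2 h later. Stomach removed after 3 h, gastric juice volume measured and acidity titrated with 0.1N NaOH to pH 7.0. Percent inhibition calculated against saline controls.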

[4] = system: Stress ulcer induced by water-immersion; test: Anti-ulcer activity: Stress ulcer induced by water-immersion; assay type: in vivo, Wistar rats
Experimental: (iii) Stress ulcer induced by water-immersion
An experiment was carried out according to the method of Takagi et al. [K. Takagi et al., Jap.
Six Wistar rats (male, 230 to 280 g) per group were starved for 24 hours, after which each drug was orally administered. After 30 minutes, the rats were placed in stress cage, immersed in water at 23° C. to the depth of xiphoid, and allowed to stand therein for 15 hours. Thereafter, the stomach of each rat was removed and then fixed with 3% formalin, after which the areas of the ulcers formed were measured under the binocular stereoscopic microscope (10×), and the sum total of the areas was taken as the ulcer index. To a control group was administered 0.5% Tween 80 physiological saline.
The inhibition percentage was determined from the following equation: [formula]

[5] = system: Mepirizole-induced duodenal ulcer; test: Anti-ulcer activity: Mepirizole-induced duodenal ulcer; assay type: in vivo, Wistar strain rats
Experimental: (ii) Mepirizole-induced duodenal ulcer
A test was carried out according to the method of Okabe et al. [S. Okabe et al., Gastrcenterology, 80, 1241 (1981)].
Six Wistar strain rats (male, 200 to 250 g) per group were starved for 24 hours, after which each drug was orally administered, and after 30 minutes, mepirizole was injected subcutaneously at a dose of 200 mg/kg. After 18 hours, the stomach and duodenum were removed and fixed with 3% formalin, after which the areas and depths of the ulcers formed in the duodenum were measured under the binocular stereoscopic microscope (10×). The scores were given in 7 grades depending on the areas and depths of the ulcers, and the sum total of the scores was taken as the ulcer index. The scores were given as follows:
That is to say, the score is 0 at an ulcer area of 0 to 0.2 mm^2, 1 at 0.2 to 1.0 mm^2, 2 at 1 to 3 mm^2, 3 at 3 to 6 mm^2, 4 at 6 to 10 mm^2,5 at 10 mm^2 or more, the ulcer in the condition immediately before perforation is scored as 6, and the ulcer which had caused perforation is scored as 7.
(§1) To a control group was administered 0.5% Tween 80 physiological saline. The inhibition percentage was determined from the following equation: [formula]

[6] = system: Reserpine ulcer; test: Anti-ulcer activity: Reserpine ulcer; assay type: in vivo, Wistar strain rats; details: oral
Experimental: An experiment was carried out according to the method of Adami et al. [E. Adami et al., Arch. int.
Ten Wistar strain rats (male, 180 to 200 g) per group were starved for 30 hours, after which each drug was orally administered, and after 1 hour, reserpine was injected subcutaneously at a dose of 10 mg/kg. After 18 hours, the stomach was removed and fixed with 3% formalin, and thereafter the lengths of the ulcers formed in the stomach were measured with callipers. The measured values were converted to the scores described below, and the sum total of the scores was taken as the ulcer index.
That is to say, 1 to 5 pin point ulcers are scored as 1, 6 or more pin point ulcers are scored as 2, ulcers of 1 mm or less in length are scored as 1, ulcers of 1 to 2 mm in length are scored as 2, ulcers of 2 to 4 mm in length are scored as 4, and ulcers of 4 mm or more in length are scored as 8.
as §1

[7] = system: Indomethacin ulcer; test: Anti-ulcer activity: Indomethacin ulcer; assay type: in vivo, Wistar strain rats
Experimental: Six Wistar strain rats (male, 200 to 250 g) per group were starved for 24 hours, after which each drug was orally administered, and after 30 minutes, Indomethacin was injected subcutaneously at a dose of 30 mg/kg. After 5 hours, each rat was killed, and the stomach was removed and fixed with 3% formalin, after which the lengths of ulcers formed in the stomach was measured under the binocular stereoscopic microscope (10×), and the sum total of the lengths was taken as the ulcer index. To a control group was administered 0.5% Tween 80 physiological saline. The inhibition percentage was determined from the following equation: [formula]

COc1cccc(C(O)CNC(=C[N+](=O)[O-])NCCSCc2cc(C)c(CN(C)C)s2)c1 (stereo not drawn) [compound 9, N-{2-[[5-(dimethylamino)methyl-4-methyl-2-thienyl]methylthio]ethyl}-N'-[2-hydroxy-2-(3-methoxyphenyl)ethyl]-2-nitro-1,1-ethenediamine]
ED100 ([1]; Rattus norvegicus, cumulative, histamine 30 μg/kg/min, read-out: Dose for complete inhibition): 0.2 mg/kg | Duration ([1]; time from complete inhibition until pH of perfusate became 4): 190 min | Potency ratio ([2]; Cimetidine = 1): 13.7 | IC50 ([2]; right atrium, 5×10^-6 M histamine, 30° C., read-out: ID50 (the source's name)): 0.245 µM | inhibition in vivo at 1 mg/kg [3]: 75% | Inhibition percentage ([4]; 1 mg/kg, oral): 33% | Inhibition percentage ([4]; 3 mg/kg, oral): 66% | Inhibition percentage ([4]; 10 mg/kg, oral): 86% | Potency ratio ([4]; Cimetidine = 1): 9.1 | ED50 ([4]; Rattus norvegicus, 15 h, oral, water-immersion stress ulcer, read-out: ID50 (the source's name)): 1.7 mg/kg | Inhibition percentage ([5]; 1 mg/kg, oral): -8% | Inhibition percentage ([5]; 3 mg/kg, oral): 33% | Inhibition percentage ([5]; 10 mg/kg, oral): 93% | Potency ratio ([5]; Cimetidine = 1): 37.7 | ED50 ([5]; Rattus norvegicus, 18 h, oral, mepirizole-induced duodenal ulcer, read-out: ID50 (the source's name)): 4.3 mg/kg | Inhibition percentage ([6]; 1 mg/kg): 29% | Inhibition percentage ([6]; 3 mg/kg): 69% | ED50 ([6]; Rattus norvegicus, 18 h, reserpine ulcer, read-out: ID50 (the source's name)): 1.8 mg/kg | Potency ratio ([7]; Cimetidine = 1): 39.3 | ED50 ([7]; Rattus norvegicus, 5 h, oral, Indomethacin ulcer, read-out: ID50 (the source's name)): 0.7 mg/kg | inhibition in vivo at 0.3 mg/kg ([7]; Rattus norvegicus, 0.3 mg/kg, oral, read-out: Inhibition percentage): 6% | inhibition in vivo at 1 mg/kg ([7]; Rattus norvegicus, 1 mg/kg, oral, read-out: Inhibition percentage): 70% | inhibition in vivo at 3 mg/kg ([7]; Rattus norvegicus, 3 mg/kg, oral, read-out: Inhibition percentage): 85% | inhibition in vivo at 10 mg/kg ([7]; Rattus norvegicus, 10 mg/kg, oral, read-out: Inhibition percentage): 97%
